According to ChEMBL document CHEMBL4052642, “4-Methyl-6,7-dihydro-4H-triazolo[4,5-c]pyridine-Based P2X7 Receptor Antagonists: Optimization of Pharmacokinetic Properties Leading to the Identification of a Clinical Candidate” (J Med Chem, 2017):
In brackets after ≈: the same amount, converted by molar mass. Activity calls are given as the source filed them. No cut-off for these calls is given here.

What was measured:
[1] = species: Homo sapiens; assay: Toxicity in human at 0.5 to 600 mg
[2] = tested on: Canis familiaris; assay: Toxicity in dog at 30 to 300 mg/kg administered via oral gavage on day 1 and day 5 by histopathological method; format: organism-based, Canis lupus familiaris; details: in vivo
[3] = tested on: Canis familiaris; assay: Toxicity in dog at 30 to 300 mg/kg administered via oral gavage on day 1 and day 5 by hematoxylin-eosin staining-based necroscopic method; format: organism-based, Canis lupus familiaris; details: in vivo
[4] = tested on: Rattus norvegicus; assay: Drug uptake in rat at 62.5 to 250 mg/kg administered via oral gavage on day 1 and day 4; format: ADME, organism-based; details: in vivo
[5] = tested on: Canis familiaris; assay: Toxicity in dog assessed as change in serum chemistry at 30 to 300 mg/kg administered via oral gavage on day 1 and day 5; format: organism-based, Canis lupus familiaris; details: in vivo
[6] = tested on: Rattus norvegicus; assay: Toxicity in rat at 62.5 to 250 mg/kg administered via oral gavage on day 1 and day 4; format: organism-based; details: in vivo
[7] = Drug uptake in dog brain at 3 mg/kg, po after 96 hrs; format: ADME, organism-based, Canis lupus familiaris; details: read-out: Drug uptake
[8] = tested on: Canis familiaris; assay: Ex vivo receptor occupancy at P2X7 in dog brain at 3 mg/kg, po after 96 hrs by autoradiography; format: functional, organism-based; details: Canis lupus familiaris
[9] = tested on: Canis familiaris; assay: Inhibition of LPS/Bz-ATP-induced IL-1beta release in dog blood at 3 mg/kg, po after 4 to 96 hrs; format: functional, organism-based; details: Canis lupus familiaris
[10] = tested on: Rattus norvegicus; assay: Inhibition of Bz-ATP-induced IL-1beta release in po dosed Sprague-Dawley rat hippocampus preincubated for 1 hr followed by Bz-ATP challenge measured after 2 hrs by microdialysis method; format: functional, organism-based
[11] = molecular target: P2X purinoceptor 7 (Rattus norvegicus) (UniProt Q64663); assay: Displacement of [3H]-(6S)-7-[[2-chloro-3-(trifluoromethyl)phenyl]methyl]-6-methyl-3-pyrimidin-2-yl-5,6dihydro[1,2,4]triazolo[4,3-a]pyrazin-8-one from P2X7 in rat frontal cortex at 100 pM to 10 uM
[12] = molecular target: P2X purinoceptor (Macaca mulatta, UniProt G7N604); assay: Antagonist activity at macaque P2X7 assessed as inhibition of BzATP-induced calcium flux preincubated for 30 mins followed by BzATP addition measured over 180 secs by FLIPR assay
[13] = Antagonist activity at dog P2X7 assessed as inhibition of BzATP-induced calcium flux preincubated for 30 mins followed by BzATP addition measured over 180 secs by FLIPR assay; design: species or system Canis lupus familiaris
[14] = molecular target: P2X purinoceptor 4 (Homo sapiens) (UniProt Q99571); assay: Antagonist activity at P2X4 (unknown origin) assessed as inhibition of BzATP-induced calcium flux up to 10 uM preincubated for 30 mins followed by BzATP addition measured over 180 secs by FLIPR assay
[15] = molecular target: P2X purinoceptor 2 (Homo sapiens) (UniProt Q9UBL9); assay: Antagonist activity at P2X2 (unknown origin) assessed as inhibition of BzATP-induced calcium flux up to 10 uM preincubated for 30 mins followed by BzATP addition measured over 180 secs by FLIPR assay
[16] = molecular target: P2X purinoceptor 1 (Homo sapiens) (UniProt P51575); assay: Antagonist activity at P2X1 (unknown origin) assessed as inhibition of BzATP-induced calcium flux up to 10 uM preincubated for 30 mins followed by BzATP addition measured over 180 secs by FLIPR assay
[17] = Metabolic stability in cynomolgus monkey liver microsomes at 1 uM after 5 to 60 mins by LC-MS/MS analysis; format: ADME, Macaca fascicularis, microsome
[18] = tested on: Hepatocyte; assay: Metabolic stability in hepatocytes (unknown origin); format: ADME, cell-based
[19] = tested on: Liver; assay: Metabolic stability in dog liver microsomes at 1 uM after 5 to 60 mins by LC-MS/MS analysis; format: ADME, Canis lupus familiaris, microsome
[20] = tested on: Liver; assay: Metabolic stability in mouse liver microsomes at 1 uM after 5 to 60 mins by LC-MS/MS analysis; format: ADME, microsome
[21] = tested on: Liver; assay: Metabolic stability in rat liver microsomes at 1 uM after 5 to 60 mins by LC-MS/MS analysis; format: ADME, microsome
[22] = tested on: Cynomolgus monkey; assay: Oral bioavailability in cynomolgus monkey at 5 mg/kg by LC-MS/MS analysis; format: ADME, organism-based, Macaca fascicularis; details: in vivo
[23] = Half life in cynomolgus monkey at 1 mg/kg, iv by LC-MS/MS analysis; format: ADME, organism-based, Macaca fascicularis; details: in vivo
[24] = Volume of distribution at steady state in cynomolgus monkey at 1 mg/kg, iv or 5 mg/kg, po by LC-MS/MS analysis; format: ADME, organism-based, Macaca fascicularis; details: in vivo, read-out: Vdss
[25] = Volume of distribution at steady state in beagle dog at 0.5 mg/kg, iv or 2.5 mg/kg, po by LC-MS/MS analysis; format: ADME, organism-based, Canis lupus familiaris; details: in vivo, read-out: Vdss
[26] = Clearance in cynomolgus monkey at 1 mg/kg, iv or 5 mg/kg, po by LC-MS/MS analysis; format: ADME, organism-based, Macaca fascicularis; details: in vivo
[27] = molecular target: T1, Cytochrome P450 2C8 (Homo sapiens, UniProt P10632); assay: Inhibition of CYP2C8 in human liver microsomes using paclitaxel as substrate after 15 mins by LC-MS/MS analysis; format: ADME
T1 sequence (P10632 whole entry): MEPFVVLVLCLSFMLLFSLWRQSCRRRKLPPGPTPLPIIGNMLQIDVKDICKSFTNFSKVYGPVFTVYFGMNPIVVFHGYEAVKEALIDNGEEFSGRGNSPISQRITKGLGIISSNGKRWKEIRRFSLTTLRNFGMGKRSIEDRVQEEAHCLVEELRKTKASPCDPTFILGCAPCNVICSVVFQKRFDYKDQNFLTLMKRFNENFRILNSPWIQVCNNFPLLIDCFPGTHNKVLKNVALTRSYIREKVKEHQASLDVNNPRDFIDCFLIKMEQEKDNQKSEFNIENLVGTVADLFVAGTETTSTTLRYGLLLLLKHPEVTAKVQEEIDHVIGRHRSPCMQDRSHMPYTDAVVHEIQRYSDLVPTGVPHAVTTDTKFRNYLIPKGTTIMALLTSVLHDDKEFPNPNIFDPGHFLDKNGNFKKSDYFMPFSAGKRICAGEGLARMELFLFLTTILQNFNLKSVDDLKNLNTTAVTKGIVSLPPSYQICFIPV

[28] = tested on: Rattus norvegicus; assay: Ex vivo receptor occupancy at P2X7 in po dosed Sprague-Dawley rat brain after 60 mins by autoradiography; format: functional
[29] = tested on: Rattus norvegicus; assay: Ex vivo receptor occupancy at P2X7 in po dosed Sprague-Dawley rat brain assessed as plasma concentration required to achieve EC50 after 60 mins by autoradiography; format: functional, organism-based
[30] = Half life in Sprague-Dawley rat at 1 mg/kg, iv by LC-MS/MS analysis; format: ADME, organism-based; details: in vivo
[31] = Solubility of compound in phosphate buffer at pH 7 after 3 days; format: physicochemical
[32] = Solubility of compound in phosphate buffer at pH 2 after 3 days; format: physicochemical
[33] = Protein binding in human plasma at 1 uM after 6 hrs by equilibrium dialysis method; format: ADME, cell-free; details: read-out: PPB (converted)
[34] = Protein binding in mouse plasma at 1 uM after 6 hrs by equilibrium dialysis method; format: ADME, cell-free; details: read-out: PPB (converted)
[35] = Protein binding in rat plasma at 1 uM after 6 hrs by equilibrium dialysis method; format: ADME, cell-free; details: read-out: PPB (converted)
[36] = tested on: Canis familiaris; assay: Drug uptake in dog at 30 to 300 mg/kg administered via oral gavage on day 1 and day 5; format: ADME, organism-based, Canis lupus familiaris; details: in vivo
[37] = molecular target: P2X purinoceptor 7 (Homo sapiens) (UniProt Q99572); details: 100 pM
Chain of P2X purinoceptor 7 (Homo sapiens) (Q99572 whole entry): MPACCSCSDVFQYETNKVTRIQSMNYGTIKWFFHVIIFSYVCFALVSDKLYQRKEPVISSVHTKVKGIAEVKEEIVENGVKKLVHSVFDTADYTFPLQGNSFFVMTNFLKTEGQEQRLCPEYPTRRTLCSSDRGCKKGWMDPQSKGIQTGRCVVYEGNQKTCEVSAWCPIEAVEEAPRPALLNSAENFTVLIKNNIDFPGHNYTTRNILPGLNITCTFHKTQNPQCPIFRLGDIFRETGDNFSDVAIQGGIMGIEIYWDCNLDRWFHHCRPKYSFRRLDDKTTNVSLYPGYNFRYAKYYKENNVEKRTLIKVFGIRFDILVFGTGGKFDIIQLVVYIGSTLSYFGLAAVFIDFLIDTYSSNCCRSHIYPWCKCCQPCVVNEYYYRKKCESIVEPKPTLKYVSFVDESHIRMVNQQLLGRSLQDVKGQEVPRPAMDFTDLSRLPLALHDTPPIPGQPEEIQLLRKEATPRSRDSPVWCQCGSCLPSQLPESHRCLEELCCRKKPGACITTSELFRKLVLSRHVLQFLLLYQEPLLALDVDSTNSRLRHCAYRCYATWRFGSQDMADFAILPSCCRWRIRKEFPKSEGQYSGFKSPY
Description: Displacement of [3H]-(6S)-7-[[2-chloro-3-(trifluoromethyl)phenyl]methyl]-6-methyl-3-pyrimidin-2-yl-5,6dihydro[1,2,4]triazolo[4,3-a]pyrazin-8-one from P2X7 in human superior frontal gyrus at 100 pM to 10 uM

Chain of P2X purinoceptor 4 (Homo sapiens) (Q99571 whole entry): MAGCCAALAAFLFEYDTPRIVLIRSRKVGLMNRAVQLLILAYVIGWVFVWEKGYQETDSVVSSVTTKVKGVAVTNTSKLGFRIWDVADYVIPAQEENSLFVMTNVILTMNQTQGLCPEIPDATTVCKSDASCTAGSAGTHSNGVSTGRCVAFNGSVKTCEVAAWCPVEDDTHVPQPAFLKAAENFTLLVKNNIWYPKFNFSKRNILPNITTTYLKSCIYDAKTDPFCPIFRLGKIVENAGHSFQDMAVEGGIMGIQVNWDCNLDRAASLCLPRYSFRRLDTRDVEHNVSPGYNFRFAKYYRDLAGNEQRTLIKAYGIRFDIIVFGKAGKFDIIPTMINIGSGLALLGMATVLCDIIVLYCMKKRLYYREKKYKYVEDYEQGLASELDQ
Chain of P2X purinoceptor 1 (Homo sapiens) (P51575 whole entry): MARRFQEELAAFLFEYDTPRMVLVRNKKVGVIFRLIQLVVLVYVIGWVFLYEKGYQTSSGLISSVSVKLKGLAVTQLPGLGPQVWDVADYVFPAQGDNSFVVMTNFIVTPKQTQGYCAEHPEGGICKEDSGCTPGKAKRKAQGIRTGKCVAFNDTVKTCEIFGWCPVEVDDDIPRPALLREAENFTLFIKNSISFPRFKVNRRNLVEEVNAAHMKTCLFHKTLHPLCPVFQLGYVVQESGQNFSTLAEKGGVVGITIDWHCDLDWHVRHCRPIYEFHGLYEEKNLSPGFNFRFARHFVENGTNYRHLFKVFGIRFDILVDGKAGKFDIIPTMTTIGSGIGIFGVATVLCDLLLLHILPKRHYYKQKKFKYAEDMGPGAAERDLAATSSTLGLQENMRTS
Chain of P2X purinoceptor 7 (Rattus norvegicus) (Q64663 whole entry): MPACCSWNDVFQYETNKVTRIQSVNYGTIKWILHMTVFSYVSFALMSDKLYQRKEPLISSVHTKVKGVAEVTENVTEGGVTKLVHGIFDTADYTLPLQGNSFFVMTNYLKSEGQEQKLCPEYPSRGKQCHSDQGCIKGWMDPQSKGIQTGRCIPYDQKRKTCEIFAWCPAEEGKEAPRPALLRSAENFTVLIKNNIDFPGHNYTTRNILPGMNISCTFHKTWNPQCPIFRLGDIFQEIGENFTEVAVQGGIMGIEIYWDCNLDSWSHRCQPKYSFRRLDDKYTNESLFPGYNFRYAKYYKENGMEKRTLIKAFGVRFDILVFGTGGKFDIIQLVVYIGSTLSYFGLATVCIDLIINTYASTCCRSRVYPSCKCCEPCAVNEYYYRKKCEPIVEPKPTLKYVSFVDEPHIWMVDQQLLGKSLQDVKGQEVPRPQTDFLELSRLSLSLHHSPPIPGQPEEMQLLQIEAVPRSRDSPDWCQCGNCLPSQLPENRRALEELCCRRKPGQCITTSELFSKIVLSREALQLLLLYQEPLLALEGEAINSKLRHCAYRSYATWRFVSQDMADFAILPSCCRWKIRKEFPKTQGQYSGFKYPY
Chain of P2X purinoceptor 2 (Homo sapiens) (Q9UBL9 whole entry): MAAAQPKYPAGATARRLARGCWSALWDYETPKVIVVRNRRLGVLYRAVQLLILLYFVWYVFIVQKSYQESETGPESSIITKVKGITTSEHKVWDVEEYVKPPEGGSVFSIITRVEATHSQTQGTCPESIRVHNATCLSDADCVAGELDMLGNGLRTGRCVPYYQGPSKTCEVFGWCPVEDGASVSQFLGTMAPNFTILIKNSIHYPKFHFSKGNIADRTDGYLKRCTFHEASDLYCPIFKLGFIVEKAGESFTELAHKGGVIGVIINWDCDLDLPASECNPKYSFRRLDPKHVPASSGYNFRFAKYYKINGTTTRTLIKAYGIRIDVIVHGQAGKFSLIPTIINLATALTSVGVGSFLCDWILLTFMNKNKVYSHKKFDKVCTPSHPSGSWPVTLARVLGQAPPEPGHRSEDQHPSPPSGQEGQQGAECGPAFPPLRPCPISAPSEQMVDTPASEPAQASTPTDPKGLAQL
Chain of P2X purinoceptor (G7N604 whole entry): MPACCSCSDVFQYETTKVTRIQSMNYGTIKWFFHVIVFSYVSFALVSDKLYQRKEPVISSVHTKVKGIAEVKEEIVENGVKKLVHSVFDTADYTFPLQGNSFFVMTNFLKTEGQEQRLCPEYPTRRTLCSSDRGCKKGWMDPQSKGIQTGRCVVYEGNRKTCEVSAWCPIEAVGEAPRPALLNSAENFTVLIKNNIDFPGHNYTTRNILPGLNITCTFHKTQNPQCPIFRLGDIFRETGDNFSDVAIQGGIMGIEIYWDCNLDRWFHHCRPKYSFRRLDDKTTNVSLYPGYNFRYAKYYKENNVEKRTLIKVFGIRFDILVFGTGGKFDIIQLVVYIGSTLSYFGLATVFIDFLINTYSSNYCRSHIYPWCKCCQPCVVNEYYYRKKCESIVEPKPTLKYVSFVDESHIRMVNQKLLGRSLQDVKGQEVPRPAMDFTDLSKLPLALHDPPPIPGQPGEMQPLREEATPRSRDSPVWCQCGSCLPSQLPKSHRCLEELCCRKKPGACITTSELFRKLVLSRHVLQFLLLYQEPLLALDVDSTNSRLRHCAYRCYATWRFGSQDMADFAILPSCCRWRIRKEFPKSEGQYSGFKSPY

In the case of `C[C@@H]1c2nnn(-c3ncc(F)cn3)c2CCN1C(=O)c1cccc(C(F)(F)F)c1Cl` [JNJ-54175446], the Activity [1] is reported as “Non-Toxic”, the Activity [2] is reported as “Non-Toxic” and the Activity [3] is reported as “Non-Toxic”. For the same compound, the Drug uptake [4] was “Active”, the Activity [5] was “Non-Toxic” and the Activity [6] was “Non-Toxic”. For the same compound, the concentration at 96 h [7] was greater than 1 µM, the Occ [8] was “Active” and the inhibition [9] was “Active”. The inhibition [10] was “Dose-dependent effect”, the inhibition [11] was “Dose-dependent effect” and the IC50 [12] was 0.00794 µM. For the same compound, the pIC50 [13] was 7.9, the inhibition [14] was “inactive” and the inhibition [15] was “inactive”. For the same compound, the inhibition [16] was “inactive”, the Stability [17] was “Stable” and the Stability [18] was “Stable”. The Stability [19] was “Stable”, the Stability [20] was “Stable” and the Stability [21] was “Stable”. For the same compound, the F [22] was 157%, the half-life [23] was 6.9 h and the Vd [24] was 2.1 L/kg. For the same compound, the Vd [25] was 2.5 L/kg, the clearance [26] was 0.264 L/h/kg and the IC50 [27] was 9.6 µM. For the same compound, the Occ [28] was “Dose-dependent effect”, the ED50 ([28]; 1 h) was 0.46 mg/kg and the Cp [29] was 105 ng/mL. The half-life [30] was 8.6 h, the solubility at 72 h [31] was 20.7 µM (≈ 9.12 µg/mL) and the solubility at 72 h [32] was 38.7 µM (≈ 17.1 µg/mL). The fraction unbound at 6 h, 1 µM [33] was 0.112, the fraction unbound at 6 h, 1 µM [34] was 0.113 and the fraction unbound at 6 h, 1 µM [35] was 0.122. For the same compound, the Drug uptake [36] was “Active” and the inhibition [37] was “Dose-dependent effect”.
